In PubChem BioAssay (NCI):
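96-well plates; 48 h exposure; 5 concentrations. Endpoints by linear interpolation between flanking doses. Not reached: highest tested concentration assigned. At the GI50, growth is halved. TGI denotes the concentration required for complete inhibition of growth.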

Tested on: MDA-MB-468 breast
Assay: growth of human tumour cells (NCI), 48 h

SMILES | GI50 | TGI
CNCCCNc1nc2ccccc2c2c(=O)c3cc(F)ccc3sc12 | 1.18 µM | 2.6 µM
O=C1/C=C/[C@@H](O)[C@@H]2C[C@@H](O)C[C@H]2/C=C/CCC[C@H](CCc2ccccc2)O1 | < 0.01 µM | 0.0251 µM
COc1cccc2c1O/C(=C\c1ncc([N+](=O)[O-])n1C)C2=O | 1.59 µM | 4.3 µM
Cc1cc2cn3c4ccc(O)cc4nc(N)c3c2cc1C | 0.222 µM | 0.626 µM
c1ccc(-c2n(Cc3ccc4ccccc4c3)c3c4ccccc4c4ccccc4c3[n+]2Cc2ccc3ccccc3c2)cc1 | 0.23 µM | 0.845 µM
O=c1ccccc(-c2ccc(Br)cc2)c1O | 0.257 µM | 2.32 µM
CC1(C)CC[C@]2(C(=O)Nc3ccccn3)CC[C@]3(C)C(=CC[C@@H]4[C@@]5(C)C/C(=C/c6ccncc6)C(=O)C(C)(C)[C@@H]5CC[C@]43C)[C@@H]2C1 | 2.12 µM | > 100 µM
C#CC[C@@H]1C[C@]2(C)[C@H]3CC[C@@H]4[C@H]5C(C(=C)C)CC[C@]5(C(=O)NCCCCN)CC[C@@]4(C)[C@]3(C)CC[C@H]2C(C)(C)[C@H]1OC(C)=O (stereo partly specified) | 1.78 µM | 3.59 µM
COc1ccc(C(=O)c2sc3nc4c(cc3c2N)CCCC4)cc1OC | 2.46 µM | 23.6 µM
Cc1nc2cc(-c3nn(C(C)C)c4ncnc(N)c34)ccc2o1 | 0.00863 µM | 0.101 µM
CCc1ccc(C(=O)/C=C/C23c4ccccc4C(c4ccccc42)C2C(=O)NC(=O)C23)cc1 (stereo unspecified) | 1.79 µM | 4.13 µM
COc1ccc(/C=C2\COc3ccc(O)c(O)c3C2=O)cc1 | 1.24 µM | 3.94 µM
CCN(CC)CC(O)CNc1c2ccc(Cl)cc2nc2ccc(OC)cc12 (stereo unspecified) | 0.666 µM | 2.18 µM
CC(C)Oc1ccc(-c2nn([C@@H](C)c3oc4ccc(F)cc4c(=O)c3-c3cccc(F)c3)c3ncnc(N)c23)cc1F | 37.1 µM | > 100 µM
COc1ccc(C2C=C(c3ccc(OC)c(OC)c3)N=C3SC=CN32)c(Br)c1 (stereo unspecified) | 1.88 µM | 3.91 µM
COc1cc(/C=C2\C(=O)Nc3ccccc32)cc(OC)c1O | 1.57 µM | 7.67 µM
COc1ccc(C(=S)N(C)NC(=O)CC(=O)NN(C)C(=S)c2ccc(OC)cc2)cc1 | 48.7 µM | > 100 µM
COc1ccc(-c2ccc(-c3ccc(C(=N)N)c(F)c3)s2)cc1 | 0.373 µM | 1.21 µM
COc1cc(OC)c(/C=C/c2cc[n+](C)c3ccccc23)c(OC)c1 | 0.36 µM | 5.01 µM
c1ccc(CC(Cc2ccccc2)C2=NCCCN2)cc1 | 2.92 µM | > 100 µM
Cc1ccc(C2=NN(c3ccc(S(C)(=O)=O)cc3)C(=O)CC2)cc1 | 1.23 µM | 4.86 µM
C[CH2][Pb]([CH2]C)([CH2]C)[O]C(=O)COC | 0.201 µM | 0.71 µM
CC(=O)c1c(Nc2cccc(F)c2)[nH]c2c(Cl)cc(Cl)c(Cl)c2c1=O | 0.317 µM | 1.35 µM
COc1cc(C2CC(c3cccc(Nc4ccncc4)c3)=NN2c2ccccc2)cc(OC)c1OC (stereo unspecified) | 1.49 µM | 2.95 µM

SMILES | GI50 | TGI
COC(=O)/C=C1/SC(=Nc2ccc(F)cc2)N(CCc2c[nH]c3ccc(O)cc23)C1=O | 3.03 µM | 23.6 µM
O=C(Nc1ccc(Cl)cc1)Nc1ccc(Cl)c(C(F)(F)F)c1 | 1.67 µM | 4.8 µM
O=C(O)c1ccc(NCc2nc3cc(Cl)c(Cl)cc3[nH]2)cc1 | 62 µM | > 100 µM
O=C1OCC2=C1C(c1ccc3c(c1)OCO3)c1cc3c(cc1O2)OCO3 (stereo unspecified) | 0.938 µM | > 100 µM
CN(C)CCONC(=O)C12CC3CC(CC(C3)C1)C2 | > 100 µM | > 100 µM
Cc1cc(Cl)ccc1OCc1nn2c(CCCCc3nnc4sc(COc5ccc(Cl)cc5C)nn34)nnc2s1 | 8.42 µM | 81.2 µM
COc1cc(/C=C/C(=O)c2ccccc2)cc(OC)c1OC | 2.3 µM | 8.32 µM
Cc1cc(=O)n2nnc3c4ccccc4ccc3n12 | 1.75 µM | 4.82 µM
Cn1c(-c2ccncc2)c(-c2ccc(F)cc2)c2ncccc21 | > 22.7 µM | > 25 µM
O=C1C=CC2(O)OC/C(=C\c3ccccc3)C(O)=C2C1=O (stereo unspecified) | 1.62 µM | 3.23 µM
CCc1cccc2c3c(sc12)C(c1ccc(F)cc1)C(C#N)=C(/N=C/c1ccc(Cl)cc1)O3 (stereo unspecified) | 0.248 µM | 0.812 µM
O=c1ncc(I)cn1C1CC(O)C(CO)O1 (stereo unspecified) | 935 µM | 2980 µM
[2H]c1nc(C)nc([2H])c1-c1cc(NC[C@@H](C)c2cccc3c(C(=O)NC)ccnc23)ncn1 | 56 µM | > 100 µM
Nc1nc2cc(O)ccc2n2cc3c(F)cccc3c12 | 2.66 µM | > 100 µM
Clc1ccc(Cn2c(CN3CCCC3)nc3ccccc32)cc1 | 13.4 µM | 34.2 µM
CC(=O)Oc1cc(C(C)C)c(OCCN(C)C)cc1C | > 100 µM | > 100 µM
CC(C)N(CCCNC(=O)Nc1ccc(C(C)(C)C)cc1)C[C@H]1O[C@@H](n2ccc3c(N)ncnc32)[C@H](O)[C@@H]1O | > 100 µM | > 100 µM
Nc1c(C(=O)Nc2cccc(C(F)(F)F)c2)sc2nc3c(cc12)C(O)CCC3 (stereo unspecified) | 1.69 µM | > 62.1 µM
Cc1ccc(CN(C)c2ccc(CO)c(Cl)c2)cc1 | 0.0389 µM | 0.166 µM
CC(=O)N1CCC(Nc2ncc3cc(Oc4ccc(F)cc4F)c(=O)n(C)c3n2)CC1 | > 25 µM | > 25 µM
Cc1oc2c(C(=O)N/N=C\c3ccc(O)cc3O)c[nH]c2c1C | 1.96 µM | 18.3 µM
COc1cc(-c2nn(-c3cccc(NC(=O)Nc4cccc(C(F)(F)F)c4)c3)cc2-c2ccncc2)ccc1Cl | 0.369 µM | 2.09 µM
Nc1c(C(=O)c2cccc(OC[C@@H](O)CO)c2)cnn1-c1ccc(F)cc1 | > 25 µM | > 25 µM
O=C(OCC1OC(n2cc(C(F)(F)F)c(=O)[nH]c2=O)CC1OC(=O)c1ccc([N+](=O)[O-])cc1)c1ccc([N+](=O)[O-])cc1 (stereo unspecified) | 28 µM | > 100 µM
